Reference: patent publication US8063109B2, “Formulations for parenteral administration of (e)-2, 6-dialkoxystyryl 4-substituted benzylsulfones” (Onconova Therapeutics, Inc., priority 2004, dated 2011)

Key:
[1] = system: tumors; experiment: Synergy with chemotherapeutic agents; format: in vivo; details: often inducing complete regression of tumors
[2] = Long term stability of ON 01910.Na 75 mg/mL in 100% PEG-400 for clinical use (HPLC); format: physicochemical
Method: ON 01910.Na IV solution was manufactured at a concentration of 75 mg/mL in 100% PEG-400. The finished product consisted of 3 mL of drug product aseptically filled into presterilized 5 mL vials. The manufacturing was in compliance with current Good Manufacturing Practices regulations.
(a) HPLC—Chromatography is performed using a Phenomenex Luna C-18 (2), 5 micron (4.6 mm×250 mm, PN 00G-4252-E0) column at ambient conditions. The mobile phase used is 60%-0.1% trifluoroacetic acid in water; 40% acetonitrile. The flow rate is set at 2.0 ml/min. Injection volume is 50 μL. Detection is accomplished by means of a UV/VIS detector at 230, 254, and 320 nm. Instrument control and data acquisition is facilitated using a Waters Millennium (V 2.15) software package. The external calibration is obtained using ON 01910.Na standard solutions prepared in 50:50 acetonitrile:water. This analytical method was validated.

[3] = system: Patients With Advanced Solid Tumors; experiment: Phase I dose escalation study, 2-hour intravenous infusion; format: in vivo, human
Method: Safety and efficacy of this formulation, for example, is tested in a Phase I clinical study, at The Johns Hopkins Sidney Kimmel Cancer Center, Baltimore, Md., i.e., “Phase I Dose Escalation Study Of ON 01910.Na By 2-Hour Intravenous Infusion In Patients With Advanced Solid Tumors”. U.S. FDA IND #66,780. The objectives of this study include an identification of a maximum tolerated dose (MTD) and a recommended dose for further clinical studies. A further object of the study is to establish a safety profile, i.e., to observe any toxicities. The patients in this study have advanced solid tumors that have failed conventional treatments, or for which no approved therapy exists. An object of the study is particularly to observe efficacy (anti-cancer effects).
The patients are administered the preferred formulation described herein of the ON 01910.Na drug (properly diluted in intravenous solution) over a two hour period, twice per week, for three weeks. The patients are subsequently observed for […], to constitute a four week treatment cycle.
This study started with a single patient at the first starting dose level of 80 mg per patient. If there is no grade 2 or worse drug-related toxicity (side effects) observed in the first four week cycle, then another patient may be dosed at the next higher dose level. The first patient was dosed at 80 mg per patient on Aug. 3, 2004. […]

Structure (SMILES) | synergy with chemotherapeutic agents [1] | shelf stability ([2]; 75 mg per ml in 100% PEG-400) | long term stability ([2]; 100% PEG-400 formulation for clinical use) | drug-related toxicity ([3]; 80 to 2080 mg per patient, 2 hour iv infusion, twice per week for three weeks, four week cycle) | dose safely administered ([3]; iv 2 hour infusion, twice per week, for 3 weeks, ten days off)
COc1cc(OC)c(/C=C/S(=O)(=O)Cc2ccc(OC)c(NCC(=O)O)c2)c(OC)c1 [Compound 4, (E)-2,4,6-Trimethoxystyryl-3-(carboxymethylamino)-4-methoxybenzylsulfone] | strong synergy |  |  |  | 
COc1cc(OC)c(/C=C/S(=O)(=O)Cc2ccc(OC)c(NCC(=O)[O-])c2)c(OC)c1.[Na+] [ON 01910.Na, (E)-2,4,6-trimethoxystyryl-3-carboxymethylamino-4-methoxybenzylsulfone] |  | shelf-stable for over one year | extremely stable | no grade 2 or worse toxicities | ≥ 2080 mg
